What was measured:
ATG5 and ATG3 mRNA = assay: Real-time PCR of autophagic mediators in lesions; assay type: in vivo, C57BL/6 mice; conditions: lesions of HCQ-treated vs PBS-treated mice
Experimental: Total RNA was isolated using the RNeasy kit following the manufacturer's instructions (QIAGEN, Valencia, Calif.). RNA concentration and purity was determined using a 1000 NanoDrop (Thermo Scientific, Pittsburgh, Pa.). Lesion mass varied by samples, and this was reflected in the RNA amounts obtained (range of mass: 0.9 mg to 25 mg). Three RNA samples from uterine horns, having a 260/280 ratio higher than 1.8 and a 260/230 ratio higher than 1.7, were selected from recipient, donor, HCQ-treated, and PBS-treated animals (12 samples in total) for RT2-PCR analyses. Synthesis of cDNA was performed using 0.5 μg of total RNA, after DNA elimination step using the RT2 First Strand kit per manufacturer instructions (QIAGEN, Valencia, Calif.). After DNA elimination, the reaction mix was incubated at 42° C. for 15 min, followed by 95° C. for 5 min using a DNA Engine® Peltier Thermal cycler (Bio-Rad, Hercules, Calif.). A total of 102 μl of the cDNA reaction mix was added to the master mix containing 1,248 μl of RNAse-free water and 1,350 μl of 2× RT2 SYBR green master mix. Twenty-five μl of the master mix were carefully added to each well of the RT2 profiler PCR autophagy array. Quantification was performed using the Applied Biosystems cycler (Life Technologies, Grand Island, N.Y.). […] The PCR cycling program finalized with a melt curve analysis and data was analyzed using the QIAGEN web-based software.

endometriotic lesions = assay: Effect of hydroxychloroquine on lesion formation in mouse endometriosis model (Example 3); assay type: in vivo, C57BL/6 mice; conditions: 60 mg/kg intraperitoneal, lesions evaluated 14 days after start; P between groups 0.0019
Experimental: To determine the effect of hydroxychloroquine on endometriosis in vivo, mice (6-8 week old C57BL/6 background mice) were fed on a mouse diet and given ad libitum access to water and kept on a light/dark cycle of 12/12 h under controlled conditions. Prior to any invasive procedure, the mice were anesthetized using Isofluorane (initial vaporizer flow rate of 3-5%) implemented once prior to an invasive procedure. The mice were also given Ketoprofen (10 mg/kg) subcutaneously as a post-operative analgesic agent for the first 24 hours and then as needed. All surgical procedures were performed under sterile conditions. Mice were ordered at 3-5 weeks of age to receive them and allow them to acclimate to the housing conditions prior to the start of the investigation when the mice are about 6 to about 8 weeks of age. […] The fragments were suspended in about 0.6 ml of phosphate buffered saline and were injected with an 18-gauge needle through the abdominal wall below the umbilicus into the peritoneal cavity of recipient mice with a ratio of one donor to two recipients (equivalent quantities). […] Lesions were identified, removed, and analyzed. […]

LC3B-II = assay: Western blot for LC3B, life-extended human endometriotic cells, HCQ; assay type: cell-based; conditions: 25 μM HCQ, 18 hours
peritoneal macrophages = assay: Peritoneal macrophage flow cytometry (CD11b, F4/80); assay type: in vivo, mouse; conditions: HCQ-treated vs PBS-treated mice, p=0.0079
Experimental: The pellet obtained after centrifugation of the peritoneal fluid wash (see above) was utilized for macrophage staining. When necessary, red blood cell lysis was performed according to the manufacturer's protocol (eBioscience, San Diego, Calif.). The cell pellets were resuspended in 1 ml cold PBS and transferred to flow cytometry tubes. Samples were centrifuged for 1 min at 1,390 rpm. The supernatant was decanted and cells were resuspended in 100 μl of PBS. Cells were blocked using 0.5 μg of Mouse BD Fc, Block™ (#553141, BD Pharmingen, San Jose, Calif.) for 5 min on ice. The cells were incubated in 0.4 μg of APC Rat anti-mouse CD11b clone M1/70 (#553312, BD Pharmingen, San Jose, Calif.) and anti mPE-F4/80/EMR1 (# FAB5580C, R&D Systems, Minneapolis, Minn.)) at room temperature for 30 min, protected from light. After incubation, 700 μl of PBS was added to each tube and centrifuged for 1 min at 4° C. The supernatant was decanted, and the cells were resuspended in 300 μl in PBS and analyzed by flow cytometry.

SMILES: CCN(CCO)CCCC(C)Nc1ccnc2cc(Cl)ccc12 (centres unmarked) [HCQ, hydroxychloroquine]
- ATG3 mRNA in lesions (ATG5 and ATG3 mRNA; p=0.0248): significant increase
- ATG5 mRNA in lesions (ATG5 and ATG3 mRNA; p=0.0499): significant increase
- effect on endometriotic lesions (FIG. 5) (endometriotic lesions): effectiveness
- LC3B-II protein (western blot) (LC3B-II): increased
- macrophage numbers in peritoneal cavity (peritoneal macrophages): significant increase

Reference: US10695341B2, “Compositions and methods for treating endometriosis” (UNIVERSITY OF SOUTH FLORIDA, priority 2014, dated 2020)
